Tests used:
[1] = leaching of Japan cedar blocks treated with LSA and chemical agents (Example 4); assay type: physicochemical; conditions: 5% LSA; for Elution Rate (%) Chemical Agent: species measured as bracketed (Copper, Zinc, Nickel, Boron, H = hinokitiol), else the agent named
Protocol: For chemical agents having low solubilities, they were added to aqueous lignosulfonic acid solution after it was warmed to 60 to 90° C., and it was cooled at 25° C. after the chemical agents were suspended, dispersed, dissolved by Vortex-Mixer, […]
The amount of lignosulfonic acid which leached off was determined by measurement of the absorbance at 280 nm, and the amount of the chemical agent which leached off was determined by complex formation and spectrophotometry using PAN (1-(2-pyridylazo)-2-naphthol, Aldrich Chemical Company) or quinalizarin (Wako Pure Chemicals), separation, identification and determination, using HPLC or gas chromatography, or atomic absorption analysis were performed, followed by calculation of the amount of the chemical agents which was eluted. When the chemical agents had absorption at 280 nm, the concentration of lignosulfonic acid was calculated by measuring the absorbance at 280 nm of the chemical agents of which the concentration was measured by the above-described method and subtracting an influence by the chemical agent from the absorbance at 280 nm of the liquid which was eluted. The amounts of the chemical agents and lignosulfonic acid which were eluted were calculated and compared taking the amounts of them injected upon the impregnation treatment as 100%.

[2] = leaching of cypress blocks, Myrothecium roridum enzyme (Example 5); assay type: physicochemical; conditions: 40 ppm Example 2 enzyme, 5% LSA; for Elution Rate (%) LSA: pH 8.2-8.8; for Elution Rate (%) Chemical Agent: pH 8.2-8.8, species as bracketed (Copper, H = hinokitiol), else the agent named
Protocol: (§1) The amounts of the chemical agents and lignosulfonic acid which were eluted were calculated and compared taking the amounts of them injected upon the impregnation treatment as 100%.

[3] = leaching of cypress blocks, bilirubin oxidase (Example 6); assay type: physicochemical; conditions: for Elution Rate (%) LSA: pH 8.1-8.8; for Elution Rate (%) Chemical Agent: pH 8.1-8.8, species as bracketed (Copper, Zinc, Nickel, Boron, H = hinokitiol), else the agent named
Excerpt: Taking the amounts of the lignosulfonic acid (LSA) and chemical agent as injected upon the impregnation treatment as 100%, respectively, the amounts of the substances which were eluted were compared.

[4] = leaching of cypress blocks, peroxidase + alcohol oxidase (Example 7); assay type: physicochemical; conditions: 5 U/ml peroxidase + 5 U/ml alcohol oxidase + 1% methanol; for Elution Rate (%) LSA: pH 8.1-8.8; for Elution Rate (%) Chemical Agent: pH 8.1-8.8, species as bracketed (Copper, Zinc, Boron, H = hinokitiol), else the agent named
Excerpt: The peroxidase used was obtained from horse radish (Type II, Sigma) and the alcohol oxidase used was obtained from Candida boidini (Boehringer Mannheim Biochemica).

[5] = leaching of Japan cedar blocks, treating mixture with tung oil (Example 8); assay type: physicochemical; conditions: Example 1 enzyme, 5% LSA, 2,000 ppm tung oil
Protocol: as §1

[6] = leaching of Japan cedar blocks after initial vacuum and pressure impregnation (Example 10); assay type: physicochemical; conditions: initial vacuum then 10 atm, enzyme added, 5% LSA; for Elution Rate (%) LSA: pH 8.1-8.8; for Elution Rate (%) Chemical Agent: pH 8.1-8.8, species as bracketed (Copper, Zinc, Nickel, H = hinokitiol), else the agent named
Protocol: A reaction mixture for treating wood containing 30 ppm of the freeze-dried product described in Example 1, 5% of commercially available lignosulfonic acid, and one or more various chemical agents was prepared, and Japan cedar wood blocks (3 cm×3 cm×2 cm, butt end: 3 cm×3 cm) were subjected to pressure reduction (initial vacuum) and impregnation treatment under pressure using the reaction mixture in the same manner as in Examples 3 and 4.
The pressure reduction and pressurization were performed by setting a vessel for impregnation operation as shown in FIG. 1 in a pressure reactor (5 liter in volume), conducting initial vacuum from 600 to 720 mmHg for 30 minutes using a vacuum pump, tilting the whole apparatus to allow the treatment liquid to flow toward the wood so that the wood blocks can be dipped in the treatment liquid, and then pressurized at 10 atm for 1 hour by flowing high pressure nitrogen gas in the reactor.
The wood blocks after the impregnation treatment were further subjected to drying/macromolecularization reaction and leaching treatment in the same manner as in Examples 3 and 4. The amounts of the chemical agents and lignosulfonic acid which were eluted were calculated and compared taking the amounts of them injected upon the impregnation treatment as 100%.

[7] = test system: Coriolus versicolor FEPRI 1030; assay: antifungal test on treated wood, weight loss; assay type: cell-based; conditions: leached wood blocks of Example 10, LSA added, enzyme added, pH of treating liquid 8.1-8.8, 26° C., 12 weeks
Protocol: (§2) After completion of the antifungal operation, the wood blocks were taken out of the incubator and hyphae on the surface thereof were removed sufficiently. After air dried for about 24 hours, the wood blocks were dried sufficiently using a drier and a desiccator in the same manner as described above and their weight was measured. Percent weight loss (%) was calculated by comparing the weight obtained with the weight before the antifungal operation.

[8] = test system: Tyromyces palustris FEPRI 0507; assay: antifungal test on treated wood, weight loss; assay type: cell-based; conditions: leached wood blocks of Example 10, LSA added, enzyme added, pH of treating liquid 8.1-8.8, 26° C., 12 weeks
Protocol: as §2

[9] = test system: house termite; assay: termite preventing test on treated wood, weight reduction; assay type: in vivo; conditions: leached wood blocks of Example 10, LSA added, enzyme added, pH 8.1-8.5, about 40 cm from termite nest, 2 months
Excerpt: The wood blocks were placed on the soil at a distance of about 40 cm around the nest of house termite. After they were left to stand for 2 months, termite preventive properties were observed. […] Then, the dry weight thus obtained was compared with the weight of the wood blocks before the placement on the soil, thus calculating a weight reduction rate.

[10] = leaching of Japan cedar blocks after reduced pressure impregnation (Example 3); assay type: physicochemical; conditions: no LSA, enzyme not added, pH 4.1
Protocol: The pH was adjusted with sodium hydroxide or sulfuric acid. The reduced pressure impregnation operation was performed by a handy method, i.e., by applying a reduced pressure of 650 to 700 mmHg for 1 hour after dipping the Japan cedar blocks in the treatment liquid and then keeping the blocks at atmospheric pressure for 30 minutes as they were dipped in the treatment liquid. By measuring the weights of each block before and after the impregnation treatment, it was confirmed that as a result of the pressure reduction treatment operation, a sufficient amount of the treating liquid (10 to 14 g) was injected in the blocks. Further, the wood blocks after the impregnation treatment were placed in an incubator at 28° C., for 5 days to effect drying and macromolecularization reaction.

[11] = copper retention rate in Japan cedar sapwood after three leachings (Example 23); assay type: physicochemical; conditions: pH of treating liquid 4.6, three leachings of 8 hours
Protocol: Aqueous solutions having the compositions listed in table 15 below were prepared and adjusted to pH 8.5 with sodium hydroxide. Those compositions which contained no ethylenediamine (EDA) nor ethanolamine (MEA) were tested at pH 4.5 since copper is deposited as copper hydroxide in alkaline regions. […] The wood blocks were taken out of the solutions and air-dried at 28 ° C. for 72 hours and then dried in a forced air circulation drier at 60° C. for 48 hours. After the drying, the wood blocks were submerged in 10 fold volume of deionized water at 25° C. with stirring at 300 rpm for 8 hours for leaching. This operation was repeated three times. The rate of copper fixed to wood was calculated from the sum of the amounts of eluted copper ions by the three elution operations to the total amount of copper ions in the solution impregnated in the wood.

[12] = in the absence of enzyme (comparison), pH 8.1-8.8
[13] = in the presence of enzyme, Japan cedar, pH of treating agent 8.1-8.8
[14] = in the presence of enzyme, pH 8.1-8.8

Compound | Elution Rate (%) LSA [1, 12] [%] | Elution Rate (%) Chemical Agent [1, 12] [%] | Elution Rate (%) LSA [1, 13] [%] | Elution Rate (%) Chemical Agent [1, 14] [%] | Elution Rate (%) LSA [2] [%] | Elution Rate (%) Chemical Agent [2] [%] | Elution Rate (%) LSA [3] [%] | Elution Rate (%) Chemical Agent [3] [%] | Elution Rate (%) LSA [4] [%] | Elution Rate (%) Chemical Agent [4] [%] | Elution Rate (%) LSA ([5]; pH 8.1-8.5) [%] | Elution Rate (%) Chemical Agent ([5]; pH 8.1-8.5, species as bracketed (Copper, Zinc, Nickel, H = hinokitiol), else the agent named) [%] | Elution Rate (%) LSA [6] [%] | Elution Rate (%) Chemical Agent [6] [%] | Weight Loss (%) Coriolus versicolor [7] [%] | Weight Loss (%) Tyromyces palustris [8] [%] | Weight Reduction Rate (%) [9] [%] | Elution Rate (%) Copper [10] [%] | Copper Retention Rate (%) ([11]; enzyme added (20 ppm)) | Copper Retention Rate (%) ([11]; enzyme not added)
CC(C)c1cccc(=O)c(O)c1 [1000 ppm Hinokitiol, Hinokitiol] | 24.2 | 14.4 | 0.6 | 3.1 | 2.2 | 7.2 | 1.7 | 5.4 | 4.5 | 6.2 | 1.1 | 0.5 | 0.4 | 2.3 | 1.5 | 2.2 | 2.2 |  |  | 
(+)-Catechin · H2O [1000 ppm (+)-Catechin · H2O] | 23.4 | 11.3 | 2.7 | 2.8 | 5.2 | 6.6 | 4.4 | 6.3 | 5.3 | 8.7 |  |  | 2.1 | 2.0 | 8.3 | 9.9 |  |  |  | 
O=S(=O)([O-])[O-].[Cu+2] [0.04 M CuSO4, copper (II) sulfate] |  |  |  |  |  |  |  |  |  |  |  |  |  |  |  |  |  | 58.5 | 19.3 | 21.8
O=C(OC[C@H]1O[C@@H](OC(=O)c2cc(O)c(O)c(OC(=O)c3cc(O)c(O)c(O)c3)c2)[C@H](OC(=O)c2cc(O)c(O)c(OC(=O)c3cc(O)c(O)c(O)c3)c2)[C@@H](OC(=O)c2cc(O)c(O)c(OC(=O)c3cc(O)c(O)c(O)c3)c2)[C@@H]1OC(=O)c1cc(O)c(O)c(OC(=O)c2cc(O)c(O)c(O)c2)c1)c1cc(O)c(O)c(OC(=O)c2cc(O)c(O)c(O)c2)c1 [500 ppm Tannic acid, Tannic acid] | 24.2 | 21.0 | 3.8 | 4.0 | 6.8 | 8.7 | 6.6 | 8.3 | 9.2 | 10.3 |  |  | 2.3 | 3.1 | 10.8 | 12.9 |  |  |  | 

Reference: patent US20030017565A1, “COMPOSITION AND METHOD FOR TREATING A POROUS ARTICLE AND USE THEREOF” (priority 1996, published 2003)
